Active and inactive are the calls of the source. No cut-off for these calls is given here.
molecular target: Protein S100-A4 (Homo sapiens, UniProt P26447); test: Binding affinity to S100A4 (unknown origin) assessed as inhibition of S100A4/myosin-2A interaction using fluorescein-tagged myosin-2A peptide (1908 to 1923 residues) by fluorescence polarization assay; details: not given
Sequence (P26447 whole entry, the tested form may be a part): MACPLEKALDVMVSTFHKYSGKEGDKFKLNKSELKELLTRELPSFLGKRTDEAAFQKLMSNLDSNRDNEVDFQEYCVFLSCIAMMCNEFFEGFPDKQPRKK

EC50 | SMILES
14 µM | O=C1C(Cl)=C(Cl)C(=O)c2ncccc21
21 µM | O=C(O)CCSC1=CC(=O)c2ccccc2C1=O
8.4 µM | Cc1ccc(S(=O)(=O)N/N=C2\C(=O)c3ccccc3-c3ccccc32)cc1
92 µM | O=C1C=C(NCCc2cc(Br)c(O)c(Br)c2)C(=O)c2ncccc21
16 µM | O=C1C=C(SCCO)C(=O)c2ccccc21
94 µM | CC(=O)NC1=C(Sc2ccc(Cl)cc2)C(=O)c2ccccc2C1=O
9 µM | CC(=O)NC1=C(Cl)C(=O)c2ncccc2C1=O
67.5 µM | O=C1CC(Cl)C(=O)c2ccccc21 (centres undefined)
35 µM | O=C1C(=C(Br)Br)c2ccccc2-c2ccccc21
70 µM | CCCCN(CCCC)CCCNC1=CC(=O)c2ncccc2C1=O
8.3 µM | O=C1C(=O)c2cc(Br)cc([N+](=O)[O-])c2-c2ccc(Br)cc21
92.5 µM | CSC1=CC(=O)c2ccccc2C1=O
19 µM | O=C1C(=O)c2cc(Br)ccc2-c2ccc(Br)cc21
16 µM | O=C1C=CC(=O)c2ncccc21
51 µM | CCSC1=C(C)C(=O)c2ccccc2C1=O
64 µM | Cc1ccc(C(=O)OC2=CC(=O)c3ccccc3C2=O)cc1
22 µM | CCSC1=CC(=O)c2ccccc2C1=O
0.5 to 2 µM | O=C1C(=O)c2cc([N+](=O)[O-])ccc2-c2ccccc21
1.8 µM | O=C1C(=O)c2cc(Cl)ccc2-c2ccccc21
39 µM | CC1=C(SCC(=O)O)C(=O)c2ccccc2C1=O
95 µM | CC1=C(SCc2ccccc2)C(=O)c2ccccc2C1=O

EC50 | SMILES
85 µM | O=C1C(NCCCN2CCCCC2)=CC(=O)c2ncccc21
31 µM | O=C1C(=C2C=Nc3ccccc32)Nc2ccc(Br)cc21
96 µM | CC(=O)N(C1=C(Cl)C(=O)c2ccccc2C1=O)c1ccc(F)cc1
2.2 µM | O=C1C2=C(SCCS2)C(=O)c2ccccc21
34 µM | NC1=CC(=O)c2ncccc2C1=O
8.1 to 8.7 µM | O=C1C(=O)c2cc(Cl)ccc2-c2ccc(Cl)cc21
46 µM | O=C1NC(=S)S/C1=C/c1cc([N+](=O)[O-])ccc1Sc1ccc(C(F)(F)F)cn1
2.2 µM | CC(=O)c1ccc2c(c1)-c1ccccc1C(=O)C2=O
13.5 µM | NC1=C(Cl)C(=O)c2ncccc2C1=O
18 µM | CC(=O)NC1=CC(=O)c2cccnc2C1=O
2.5 to 4.8 µM | O=C1c2ccccc2-c2ccccc2C1(Cl)Cl
2.5 µM | O=C1C(=O)c2cccc([N+](=O)[O-])c2-c2ccccc21
16 µM | NC1=C(Br)C(=O)c2ncccc2C1=O
28.7 µM | O=C1C(NCCF)=C(Cl)C(=O)c2ncccc21
62 µM | CC1=C(SCCO)C(=O)c2ccccc2C1=O
64 µM | CSC1=C(C)C(=O)c2ccccc2C1=O
1.6 µM | Nc1ccc2c(c1)C(=O)C(=O)c1ccccc1-2
40 µM | CCCCSC1=CC(=O)c2ccccc2C1=O
12 µM | COC1=C(N)C(=O)c2ncccc2C1=O
8.6 µM | Cc1ccc2c(n1)C(=O)C=CC2=O
36 µM | Nc1c2c(=O)[nH]c(=O)c2c(N)c2c(=O)c3ccccc3c(=O)c12

SMILES | EC50
O=C1c2ccccc2C(=O)C(Cl)C1Cl (centres undefined) | 27 µM
O=C1C(=O)c2ccccc2-c2ccccc21 [9,10-PHENANTHRENEQUINONE] | 3.8 µM
O=C1C(=O)c2cccc([N+](=O)[O-])c2-c2c1cccc2[N+](=O)[O-] | 16 µM
O=C1C(=O)c2cc([N+](=O)[O-])ccc2-c2ccc([N+](=O)[O-])cc21 | 18 µM

tested on: MDA-MB-231; test: Induction of cell death in human MDA-MB-231 cells at 50 uM incubated for 24 hrs by MTT assay relative to untreated control; type: functional; details: not given

SMILES | Activity
Cc1oc(-c2ccc(Cl)cc2)cc1C(=O)/C(C#N)=C/c1ccccc1 | 100%

tested on: MDA-MB-231; test: Growth inhibition of human MDA-MB-231 cells incubated for 24 hrs by MTT assay; type: functional; details: not given

SMILES | GI50
O=C(O)C[C@@H]1OCC=C2CN3CC[C@]45C6=CC(=O)C(=O)C([N+](=O)[O-])=C6N[C@H]4[C@H]1[C@H]2C[C@H]35 | inactive

same assay, conditions: MDA-MB-231, 24 h

GI50 | SMILES
190 µM | O=C1NC(=S)S/C1=C/c1cc([N+](=O)[O-])ccc1Sc1ccc(C(F)(F)F)cn1

Reference: ChEMBL document CHEMBL4418481, “Chemical agents for the prevention of inhibition or tumor metastasis” (2013)
